Data from patent US8476194B2.

Columns and labels:
Format in all cases: cell-based
Phytophthora capsici = assay: In vitro fungitoxicity assay against Phytophthora capsici in copper-minus AS and copper-plus AS medium
Ustilago maydis = assay: In vitro fungitoxicity assay against Ustilago maydis in copper-minus and copper-plus medium; settings: 1 μg/mL, calculated with Colby formula
[1] = system: Leptosphaeria nodorum (LEPTNO); assay: In vitro fungitoxicity assay against Leptosphaeria nodorum (LEPTNO) in copper-minus and copper-plus medium; settings: CuCl2 10 μM, no test compound, across experiments

Structure (SMILES) | % Inhn Plus copper Predicted (Phytophthora capsici; 0.050 μg/mL, calculated with Colby formula) [%] | % Inhn. Plus copper Predicted (Ustilago maydis) [%] | LEPTNO % Inhn. attributed to copper chloride alone [1] [%] | % Inhn attributed to copper chloride alone (Phytophthora capsici; CuCl2 50 uM, no test compound, across experiments) [%]
C/C(=N\NC(=O)c1ccc(Cl)cc1)c1cc(F)cc(F)c1O [Compound 96] | 7.2 | 53.6 | – | –
[Cl][Cu][Cl] [CuCl2, copper chloride] | – | – | 7.1 ± 6.0 | 4.5 ± 7.9
